# How the values were obtained:
# [1] = molecular target: FoccCSP-Phe27Ala (Frankliniella occidentalis, UniProt G4Y3X1, F27A); assay: Fluorescence (1-NPN) binding and competitive binding assay, FoccCSP mutant
# Procedure: The binding affinity of FintCSP1 and FoccCSP to the fluorescent probe N-phenyl-1-naphthylamine (1-NPN) was tested using a Spectramax M2 fluorescence spectrometer (Molecular Devices, USA) as reported previously. […] The 1-NPN/FintCSP1 or 1-NPN/FoccCSP mixture was excited at 280 nm, and the emission spectra were recorded at 415 nm. The binding constants (Kd) of FintCSP1 or FoccCSP to 1-NPN were calculated by Scatchard analysis using Prism 5 software (GraphPad, La Jolla, CA, USA). Assuming a protein activity of 100% and that the volatile compound binds to the protein in a 1:1 ratio at saturation, the dissociation constants (Ki) of FintCSP1 or FoccCSP for each ligand were calculated according to the IC50 (the concentration when the ligand replaces 50% of the probe) value of the volatile compounds. The Ki values were calculated according to the following equation: Ki = [IC50]/(1 + [1-NPN]/K1-NPN), where [1-NPN] is the free concentration of 1-NPN, and K1-NPN is the Kd of the 1-NPN/FintCSP1 or 1-NPN/FoccCSP.
# (§1) To verify the key amino acids of FintCSP1 and FoccCSP that bind to cis-3-hexenal, six amino acid residues of FintCSP1 were mutated (Lys26Ala, Phe27Ala, Thr28Ala, Glu67Ala, Ser84Ala, and the negative control residue Val132Ala) and nine amino acid residues of FoccCSP were mutated (Lys26Ala, Phe27Ala, Thr28Ala, Thr29Ala, Tyr31Ala, Asp64Ala, Glu67Ala, Gln87Ala, and the negative control residue Val132Ala) with the Fast Mutagenesis System Kit (Transgen Biotech, Beijing, China) using the pET-30a/FintCSP1 and pET-30a/FoccCSP plasmid DNA as template, respectively. Specific primers were designed using Primer Premier 5.0 according to the instructions of the Fast Mutagenesis System Kit (S1 Table). After validation by sequencing, each recombinant variant protein was produced and purified as described above, and their binding affinity to cis-3-hexenal was measured as described above.
# [2] = molecular target: FoccCSP-Val132Ala (Frankliniella occidentalis, UniProt G4Y3X1, V132A); assay: Fluorescence (1-NPN) binding and competitive binding assay, FoccCSP mutant (negative control residue)
# Chain of FoccCSP-Val132Ala (G4Y3X1 entry or part of it V132A): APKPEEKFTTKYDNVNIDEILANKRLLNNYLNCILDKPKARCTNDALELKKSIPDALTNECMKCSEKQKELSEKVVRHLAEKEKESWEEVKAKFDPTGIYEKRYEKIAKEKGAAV
# Procedure: The binding affinity of FintCSP1 and FoccCSP to the fluorescent probe N-phenyl-1-naphthylamine (1-NPN) was tested using a Spectramax M2 fluorescence spectrometer (Molecular Devices, USA) as reported previously. Volatile compounds and 1-NPN were first dissolved to a concentration of 1 mM in HPLC-grade methanol and dissolved to their indicated final concentration (2–20 μM) to titrate 2 μM protein solutions resuspended in 50 mM Tris-HCl (pH 7.4). The 1-NPN/FintCSP1 or 1-NPN/FoccCSP mixture was excited at 280 nm, and the emission spectra were recorded at 415 nm. The binding constants (Kd) of FintCSP1 or FoccCSP to 1-NPN were calculated by Scatchard analysis using Prism 5 software (GraphPad, La Jolla, CA, USA). Assuming a protein activity of 100% and that the volatile compound binds to the protein in a 1:1 ratio at saturation, the dissociation constants (Ki) of FintCSP1 or FoccCSP for each ligand were calculated according to the IC50 (the concentration when the ligand replaces 50% of the probe) value of the volatile compounds. The Ki values were calculated according to the following equation: Ki = [IC50]/(1 + [1-NPN]/K1-NPN), where [1-NPN] is the free concentration of 1-NPN, and K1-NPN is the Kd of the 1-NPN/FintCSP1 or 1-NPN/FoccCSP.
# as §1
# [3] = tested on: F. intonsa; assay: Y-tube olfactometer preference test; format: in vivo, Frankliniella intonsa
# Procedure: F. intonsa and F. occidentalis preference tests of plant volatile cues were performed using a glass Y-tube olfactometer according to the method described by Wang et al. (2014) with minor modifications. A Y-shaped tube (1-cm inner diameter) consisted of a central tube (10 cm in length) and two arms (10 cm in length, offset by 60°) connected to two different glass odor bottles. One glass odor bottle was 50 cm in height, with a 10-cm inner diameter that contained pepper plants (14-day post-viral infection); the other glass odor bottle was 5 cm in height, with a 3-cm inner diameter for plant VOCs. The airflow in the olfactometer (200 mL/min) was filtered through activated carbon and calibrated using a flow meter at the end of each arm. To remove all visual cues, the Y-tube was positioned horizontally in a black airtight cubic box (90 cm × 60 cm × 40 cm). The tested odor sources (pepper plant VOCs) were enclosed in the odor bottles 5 min prior to each test to allow the odors to fill the arms. Thrips (2-day-old, starved for 1 h) were individually placed in the central tube and allowed to choose between the two arms. When the thrips had climbed over 2/3 of the side arm and stayed there for more than 30 s, it was considered to have made a selection. If the thrips had not made a choice after being placed in the straight arm for 5 min, the insect behaviour was scored as “no selection,” and it was not counted in the total data. The direction of the Y-tube arms and the silicone tubes were adjusted after five tested thrips to eliminate the influence of position. The Y-tube was replaced after 10 tested thrips to eliminate the possible influence of existing odors on thrips behaviour. Each treatment consisted of 20 thrips, with three replicates per treatment.
# The FintCSP1, FintCSP2, FintOBP, FintOR, FoccCSP, and enhanced green fluorescent protein (EGFP) coding sequences were obtained from GenBank under accession numbers MT199111, MT211602, OK067245, MT211603, AEP27186.1, and U55761.1, respectively. Primers were designed using Primer Premier 5.0, and the T7 promoter sequence (5′-[…]-3′) was added to the 5′ end of each primer (S1 Table). DNA fragments containing T7 promoter sequences were amplified by PCR using pEASY-T1/target gene or pUC-EGFP (preserved in the laboratory) plasmid DNA as template. Then, a double-stranded RNA (dsRNA) was produced from each target gene using the HiScribe T7 Quick High Yield RNA Synthesis Kit (New England Biolabs) according to the manufacturer’s instructions. […]
# [4] = tested on: fall webworm moth (Hyphantria cunea) antennae; parameters: method as in PMID 23166622; conditions: cited from earlier work
# Chain of FoccCSP-Phe27Ala (G4Y3X1 entry or part of it F27A): as the sequence (G4Y3X1 entry or part of it V132A) above, with F8A, A113V counted along it
structure (smiles),measurement,setting,value
CC/C=C\CC=O [cis-3-hexenal],IC50,[1],> 100 µM
same,affinity for cis-3-hexenal (in words),[1]; FoccCSP-Phe27Ala,no affinity
same,IC50,[2],28.7 ± 0.12 µM
same,Ki,[2],23.69 ± 0.1 µM
same,binding to cis-3-hexenal (in words),[2]; FoccCSP-Val132Ala compared to the wild-type protein,only a minor change in binding
same,individuals that recognized the compound,"[3]; dsEGFP-treated F. intonsa, vs liquid paraffin control",73.3%
same,preference of FintCSP1-silenced thrips (in words),"[3]; dsFintCSP1-injected F. intonsa, vs liquid paraffin control",no preference
same,preference of F. intonsa in Y-tube olfactometer (in words),"[3]; volatile compound vs liquid paraffin control, n = 60",reached statistical significance
same,effect on antennal sensitivity to pheromones (in words),[4],raising the sensitivity

# Source: paper PMC10194981, “Chemosensory protein regulates the behavioural response of Frankliniella intonsa and Frankliniella occidentalis to tomato zonate spot virus–Infected pepper (Capsicum annuum)” (PLOS Pathogens, 2023)
